{"source": "patent US20110217715A1", "about": "“GENE EXPRESSION IN DUCHENNE MUSCULAR DYSTROPHY” (CHILDREN'S HOSPITAL MEDICAL CENTER, priority 2008, published 2011)", "origin": "cited, not measured here", "test_system": "individuals with DMD", "details": "cited from earlier work"}
{"smiles": "CC(=O)OCC(=O)[C@@]12N=C(C)O[C@@H]1C[C@H]1[C@@H]3CCC4=CC(=O)C=C[C@]4(C)[C@H]3[C@@H](O)C[C@@]12C", "note": "[deflazacort]", "values": [{"measurement": "side effects / weight gain", "setting": "DMD individuals receiving deflazacort, relative to prednisone", "result": "fewer side effects, in particular, less weight gain"}, {"measurement": "muscle function and strength", "setting": "individuals with DMD", "result": "improved muscle function and strength"}]}
